From ChEMBL document CHEMBL3853301, “The therapeutic voyage of pyrazole and its analogs: A review” (Eur J Med Chem, 2016) come the findings set out here.

Structures are written as SMILES. pEC50, pIC50: −log10 of the molar value. Values after ≈ are worked out from the molar mass of the structure shown.

The nature of assay [1]: Antifungal activity against Penicillium notatum NCIM 745 by broth microdilution method. The class given is functional. The settings on record: Penicillium chrysogenum.
Assay [2] concerns Escherichia coli. The assay is described as follows: Antibacterial activity against Escherichia coli NCIM 2685 by broth microdilution method. In kind it is functional.
In assay [3] the test system is Bacillus subtilis. The assay is described as follows: Antibacterial activity against Bacillus subtilis NCIM 2711 by broth microdilution method. In kind it is functional.
For assay [4], the system named is Bacillus subtilis. In words: Antibacterial activity against Bacillus subtilis by broth dilution method. The class given is functional.
Assay [5] can be described thus: Antiproliferative activity against human NPC-TW01 cells after 72 hrs by MTT assay. The conditions noted are these: NPC-TW01, 72 h. The class given is functional.
A short description of assay [6]: Antiproliferative activity against human NCI-H226 cells after 72 hrs by MTT assay. The class given is functional. The conditions noted are these: NCI-H226, 72 h.
Another assay relates to Rattus norvegicus. The assay is described as follows: Antihyperglycemic activity in STZ/nicotinamide-induced type2 diabetic Wistar rat model assessed as blood glucose level at 100 mg/kg, po measured for 14 days post dose. The class given is functional.
Assay [7] can be described thus: Antidiabetic activity in albino mouse assessed as reduction in alloxan-induced plasma glucose level at 0.2 mmol/kg, po administered 3 days post alloxan challenge measured 1 to 3 hrs post dose by copper reduction based colorimetric assay relative to control. The class given is functional, organism-based.
Assay [8] deals with Bovine viral diarrhea virus 1. In words: Antiviral activity against Bovine viral diarrhea virus 1 infected in MDBK cells. In kind it is functional, cell-based. The conditions noted are these: Bovine viral diarrhea virus isolates and strains.
Assay [9] deals with Bovine viral diarrhea virus 1. In words: Potency index, ratio of ribavirin EC50 to compound EC50 for Bovine viral diarrhea virus 1 infected in MDBK cells. In kind it is functional.
A further assay has as its system Aspergillus fumigatus. The assay is described as follows: Antifungal activity against Aspergillus fumigatus NCIM 535 by broth microdilution method. In kind it is functional.
In assay [10] the target is T1, Prostaglandin G/H synthase 1 (Ovis aries, UniProt P05979).
T1 sequence (P05979 whole entry): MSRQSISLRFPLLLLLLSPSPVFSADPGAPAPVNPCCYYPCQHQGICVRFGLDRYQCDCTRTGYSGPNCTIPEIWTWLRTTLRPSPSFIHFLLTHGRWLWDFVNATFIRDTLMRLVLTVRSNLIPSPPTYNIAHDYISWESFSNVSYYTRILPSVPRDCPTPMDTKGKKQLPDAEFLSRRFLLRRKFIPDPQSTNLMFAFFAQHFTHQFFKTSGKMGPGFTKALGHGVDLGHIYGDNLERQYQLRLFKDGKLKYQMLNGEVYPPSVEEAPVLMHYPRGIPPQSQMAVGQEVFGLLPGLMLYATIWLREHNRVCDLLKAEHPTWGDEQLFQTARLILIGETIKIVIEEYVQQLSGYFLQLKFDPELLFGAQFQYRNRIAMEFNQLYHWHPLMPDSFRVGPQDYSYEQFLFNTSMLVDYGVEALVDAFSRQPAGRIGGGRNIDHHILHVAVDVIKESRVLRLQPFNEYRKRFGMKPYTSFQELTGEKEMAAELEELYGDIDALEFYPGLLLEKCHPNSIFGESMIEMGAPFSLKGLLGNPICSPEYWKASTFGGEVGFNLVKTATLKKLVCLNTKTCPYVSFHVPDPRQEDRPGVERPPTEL
The assay is described as follows: Inhibition of recombinant ovine COX1 assessed as reduction in PGF2alpha production from PGH2 by enzyme immunoassay.

Assay [11] deals with T2, Prostaglandin G/H synthase 2 (Homo sapiens, UniProt P35354).
T2 sequence (P35354 whole entry): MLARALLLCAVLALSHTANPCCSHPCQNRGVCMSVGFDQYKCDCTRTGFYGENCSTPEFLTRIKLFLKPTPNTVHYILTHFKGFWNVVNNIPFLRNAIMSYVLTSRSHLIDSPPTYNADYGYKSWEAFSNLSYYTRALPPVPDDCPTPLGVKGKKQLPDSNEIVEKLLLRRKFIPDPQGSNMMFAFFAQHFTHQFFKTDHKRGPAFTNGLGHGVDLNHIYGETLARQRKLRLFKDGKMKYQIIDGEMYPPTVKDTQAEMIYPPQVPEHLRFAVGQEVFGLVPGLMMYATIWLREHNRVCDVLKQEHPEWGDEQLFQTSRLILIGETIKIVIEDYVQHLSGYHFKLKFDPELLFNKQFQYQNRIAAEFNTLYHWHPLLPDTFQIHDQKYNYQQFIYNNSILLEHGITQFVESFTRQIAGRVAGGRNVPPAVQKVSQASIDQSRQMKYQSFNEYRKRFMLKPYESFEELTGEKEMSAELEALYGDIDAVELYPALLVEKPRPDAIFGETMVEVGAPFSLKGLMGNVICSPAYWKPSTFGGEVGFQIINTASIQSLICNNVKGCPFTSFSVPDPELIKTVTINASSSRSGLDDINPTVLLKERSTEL
In words: Inhibition of recombinant human COX2 assessed as reduction in PGF2alpha production from PGH2 by enzyme immunoassay.

Assay [12] is described as follows: Selectivity index, ratio of IC50 for recombinant ovine COX1 to IC50 for recombinant human COX2.
For assay [13], the system named is Escherichia coli. In words: Antibacterial activity against Escherichia coli MTCC 443 after 24 hrs by broth dilution method. The conditions noted are these: MTCC 443, 24 h. The class given is functional.
Another assay deals with Pseudomonas aeruginosa. In words: Antibacterial activity against Pseudomonas aeruginosa after 16 hrs by serial dilution method. In kind it is functional.
Assay [14] has as its system Bacillus subtilis. The assay is described as follows: Antibacterial activity against Bacillus subtilis after 16 hrs by serial dilution method. In kind it is functional.
Assay [15] concerns Staphylococcus aureus. In words: Antibacterial activity against Staphylococcus aureus after 16 hrs by serial dilution method. In kind it is functional.
The test system of assay [16] is Escherichia coli. In words: Antibacterial activity against Escherichia coli after 16 hrs by serial dilution method. In kind it is functional.
The subject of assay [17] is Staphylococcus aureus. In words: Antibacterial activity against Staphylococcus aureus NCTC 7447 by serial dilution method. In kind it is functional.
Assay [18] concerns Staphylococcus aureus. In words: Antibacterial activity against Staphylococcus aureus NCTC 7447 by agar diffusion method. In kind it is functional.
Assay [19] relates to Staphylococcus aureus. In words: Antibacterial activity against Staphylococcus aureus. In kind it is functional.
For a further assay, the system named is Bacillus cereus. The assay is described as follows: Antibacterial activity against Bacillus cereus. The class given is functional.
Assay [20] concerns Mycobacterium tuberculosis. The assay is described as follows: Antimycobacterial activity against Mycobacterium tuberculosis H37Rv. In kind it is functional.

Regarding `O=C(O)n1nc(-c2ccccc2)cc1-c1cc2ccccc2nc1Cl`, the figures for the minimal inhibitory concentration (MIC) (in assay [1]; against Escherichia coli [2]; against Bacillus subtilis [3]) were 57 mg/L (≈ 163 µM), 43 mg/L (≈ 123 µM) and 54 mg/L (≈ 154 µM), respectively.
`COc1ccc(-n2c(-c3cn(-c4ccccc4)nc3-c3ccccc3)nc3ccccc3c2=O)cc1` yielded a minimal inhibitory concentration (MIC) with Bacillus subtilis [4] of 62.5 mg/L (≈ 133 µM).
Regarding `Cc1ccc(-c2cc(C(=O)Nc3ccc(N)cc3)n(-c3ccc4ccccc4n3)n2)cc1`, the GI50 in [5] came to 30 µM; in [6] it was 18 µM.
Regarding `COc1ccc(-n2cc(CC3Cc4cc(OC)c(OC)cc4C3=O)c(-c3cc4ccccc4oc3=O)n2)cc1` (centres undefined), the Activity in the assay on Rattus norvegicus was determined as 138 mg/dL.
Regarding `Cc1c(Br)c(C(F)(F)F)nn1-c1ccc(S(=O)(=O)NC(=O)Nc2ccccc2)cc1`, the inhibition in assay [7] came out at 20%.
The molecule `Cc1ccc(-n2nc(C)c3c2CN(c2ccccc2)C3=O)cc1` had a negative-log EC50 (pEC50) in assay [8] of 6.92. Further, in assay [9], the “Ratio EC50” value is on record as 10.
Consider `Nc1ccc(NC(=O)c2cc(-c3ccc(Cl)cc3)nn2-c2ccccc2)cc1`, for which the GI50 in assay [5] was found to be 30 µM; in assay [6], 18 µM.
`Nc1ccc2nc(Cl)c(-c3cc(-c4ccccc4)nn3C(=O)O)cc2c1`: the MIC in assay [1] turned out to be 46 mg/L (≈ 126 µM); with Bacillus subtilis [3] it was 44 mg/L (≈ 121 µM); with Aspergillus fumigatus it was 48 mg/L (≈ 132 µM).
For the molecule `CC(=O)NC1=NN(C(C)=O)C(c2cn(-c3ccccc3)nc2-c2ccc(O)cc2)S1` (centres undefined), the pIC50 in assay [10] was 4.14; in assay [11], 4.85. Besides, the Ratio IC50 in [12] was determined as 5.21.
`O=C1CSC(N2N=C(c3ccccc3[N+](=O)[O-])CC2c2cn(-c3ccccc3)nc2-c2ccc(F)cc2)=N1` (centres undefined): in the assay with Escherichia coli [13], the MIC worked out at 12.5 mg/L (≈ 23.7 µM).
Regarding `Sc1nncn1/N=C/c1cn[nH]c1-c1ccccc1`, the minimal inhibitory concentration (MIC) against Pseudomonas aeruginosa, with Bacillus subtilis [14], against Staphylococcus aureus [15] and against Escherichia coli [16] was 1.61 mg/L (≈ 5.96 µM) throughout.
For the molecule `COc1cc2c(cc1OC)C(=O)C(Cc1cn(-c3ccc(C)cc3)nc1-c1cc3ccccc3oc1=O)C2` (centres undefined), in the assay on Rattus norvegicus, the Activity was 115 mg/dL.
`O=C1/C(=C\c2cn(-c3ccccc3)nc2-c2ccc(O)cc2)SC(=S)N1c1ccc(Cl)cc1`: the half-inhibitory concentration (IC50) in the assay with Escherichia coli [2] stood at 62.5 mg/L (≈ 128 µM).
Regarding `CC(=O)Nc1ccc(/N=N/c2c(N)nn3c(-c4ccccc4Cl)c(C#N)c(=O)[nH]c23)cc1`, 110 mg/L (≈ 246 µM) was the least that counted as inhibitory against Staphylococcus aureus [17] (MIC). For the same molecule, in the assay on Staphylococcus aureus [18], the “inhibition zone (IZ)” value came out at 2.5 cm.
As for `O=C1C(c2cc(-c3ccc(Br)cc3)nn2-c2ccccc2)C(O)N(c2ccccc2)C(=S)N1c1ccccc1` (centres undefined), the MIC with Staphylococcus aureus [19] and in the assay on Bacillus cereus was 31.2 mg/L (≈ 52.5 µM) in each case.
As for `O=C1c2ccccc2NC(c2cn(-c3ccccc3)nc2-c2ccccc2)N1c1ccc(Cl)cc1` (centres undefined), in assay [20], the minimum inhibitory concentration (MIC) stood at 12.5 mg/L (≈ 26.2 µM).
For `CC(=O)NC1=NN(C(C)=O)C(c2cn(-c3ccccc3)nc2-c2ccc([N+](=O)[O-])cc2)S1` (centres undefined), the pIC50 in assay [10] was 4.15; in [11], 4.70. Further, the Ratio IC50 in [12] is 3.5.
`NC(=O)c1ncn([C@@H]2O[C@H](CO)[C@@H](O)[C@H]2O)n1` [RIBAVIRIN] had a negative-log EC50 (pEC50) in assay [8] of 5.89.
